{
  "source": "patent EP2518139A1",
  "about": "“Use of indirubin derivatives for producing pluripotent stem cells” (Universitätsklinikum Jena, priority 2011, dated 2012)",
  "key": {"[1]": {"tested_on": "BMP/TGFß downstream genes (ID1, ID2, CTGF, SnoN)", "experiment": "qRT-PCR of BMP/TGFß downstream genes in HeLa cells", "format": "cell-based, human", "conditions": "E738 (1µM)", "protocol": "RT-PCR: Total RNA was isolated with RNA isolation kit from Qiagen according to the manufacturer's instructions. cDNA was generated by reverse-transcription of equivalent quantities of RNA and Quantitative real-time PCR (QRT-PCR) was performed as described previously.\nTo evaluate the effect of indirubin on transcriptional activity, we focused on the BMP/Smad pathway and performed RT-PCR to measure the BMP/TGFß downstream genes expression regulated by E738 (Fig. 2E). […] As for ID2 only 50% was remained to be expressed. CTGF, a BMP antagonist and TGFß agonist (Abreu 2002 nature cell biology 4 599-607) and SnoN, a TGFß downstream gene were declined up to approximate 30% and 10% respectively."}, "Sox2": {"tested_on": "Sox2", "experiment": "Immunoblot of Sox2 expression in HFF cells", "format": "cell-based, human", "conditions": "2h"}, "Parp": {"tested_on": "Parp", "experiment": "Parp cleavage by immunoblot", "format": "cell-based", "conditions": "E738 (1µM), FCS 10% or BMP2 (100ng/mL)", "protocol": "The Figures show: • Figure 1: IRDs impacted on the activation of BMP-associated Smad1/5/8 in HeLa and HFF. Phosphorylation of Smad1 (Ser463/465)/5 (Ser463/465)/8 (Ser426/428) and pan Smad1/5/8 were detected by immunoblot after 24h treatment with IRDs as indicated at 1µM or 5µM a) in HeLa with the stimuli of BMP2 (100ng/mL), b) FCS 10%, c) in HFF with the stimuli of BMP2 (100ng/mL) or d) FCS 10%. […] Data were normalized to the value of non-treated cells, show the mean ± SD of quadruplicates and are representative of three independent experiments. […] Total lysates were analyzed by immunoblot using proper antibodies. b) Cell extracts of BMP-treated HeLa cells with or without compounds were subject to immunoblot using p- and pan-Smad1/5/8 antibodies. c) HeLa cells were incubated with or without E738 (1µM) after a 1 h pulse of BMP2, d) or with DM (1µM) and E738 (1µM) for the indicated periods. • Figure 4: R-Smad regulated by E738 in time- and dose-response studies. HeLa cells were treated with BMP2 (100ng/mL) in the presence or absence of E738 (1µM) in a time course study as indicated and analyzed, a) by immunoblot using antibodies against p-Smad1/5/8 at C tail, p-Smad1/5/8 at S206), Smad1/5/8, p-Erk1/2, p-JNK and p-P38 or b) qRT-PCR using primers of ID1 and ID2. […] The expression of Smad1, Smad2, Smad4, Smurf1 and Smurf2 were analyzed by qRT- PCR. […]"}},
  "data": [
    {"molecule": "COc1ccc2c(c1)C(=C1Nc3ccccc3C1=NOCC(O)CO)C(=O)N2", "note": "(stereo not drawn) [E738]", "values": [
      {"measurement": "ID2 expression", "setting": "[1]; BMP2 (100ng/mL), 1 h after incubation", "result": "firstly silenced"},
      {"measurement": "ID2 expression", "setting": "[1]; BMP2 (100ng/mL), 6h treatment", "result": "doubled again"},
      {"measurement": "ID1 expression", "setting": "[1]; BMP2 (100ng/mL), time course", "result": "constantly reduced"},
      {"measurement": "CTGF expression, declined up to", "setting": "[1]; BMP, 24h", "result": "~30", "unit": "%"},
      {"measurement": "ID2 remained to be expressed", "setting": "[1]; BMP, 24h", "result": 50, "unit": "%"},
      {"measurement": "SnoN expression, declined up to", "setting": "[1]; BMP, 24h", "result": "~10", "unit": "%"},
      {"measurement": "expression of ID1", "setting": "[1]; BMP, 24h", "result": "significantly repressed"},
      {"measurement": "expression of Sox2", "setting": "Sox2", "result": "stimulates expression of Sox2"},
      {"measurement": "Parp cleavage", "setting": "Parp", "result": "induced Parp cleavage"}
    ]}
  ]
}
